Values quoted from earlier work in article PMC5425492 (Clinical Pharmacokinetics, 2016).

| Substance | Within-subject variability in glucose-lowering effect [%] |
| --- | --- |
| insulin degludec | 20 |
| insulin detemir | 27 |
